Assay results taken from patent publication US11957759B1, “Rapidly accelerated fibrosarcoma (RAF) degrading compounds and associated methods of use” (Arvinas Operations, Inc., priority 2022, dated 2024).

Tests used:
B-RAF V600E = target: T1, B-RAF V600E (Homo sapiens, UniProt P15056, V600E); assay: Target protein degradation, assay C: T-Rex 293 cells, HA-BRAF_V600E, 384 well format; format: cell-based; conditions: T-Rex 293 HA-BRAF_V600E cells, 24 hours, Examples 83-269; for DC50: Assay C; for Dmax: T-REx-293, Assay C
T1 construct: expressed in transfected cells; host or cells: T-Rex 293 cells (Invitrogen #R71007)
Method in brief: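 T-Rex 293 cells stably expressing doxycycline-induced (1 ng/mL) HA-BRAF V600E were treated 24 h at 37 °C with compound (300 nM–5 pM, 11 points, 0.5% DMSO). HA immunofluorescence was quantified by high-content imaging to give DC50 and Dmax (% of control); nuclei counts versus DMSO gauged toxicity.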

B-RAF G466V = target: T2, B-RAF G466V (Homo sapiens, UniProt P15056, G466V); assay: Target protein degradation, assay D: T-Rex 293 cells, HA-BRAF_G466V, 384 well format; format: cell-based; conditions: T-Rex 293 HA-BRAF_G466V cells, 24 hours, Examples 83-269; for DC50: Assay D; for Dmax: T-REx-293, Assay D
T2 construct: expressed in transfected cells; host or cells: T-Rex 293 cells (Invitrogen #R71007)
Method in brief: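 T-Rex 293 cells stably expressing doxycycline-induced (1 ng/mL) HA-BRAF G466V treated 24 h at 37 °C with PROTACs, 11-point 1:3 dilution, 300 nM to 5 pM final, 0.5% DMSO. Fixed cells immunostained for HA and imaged by high-content microscopy; DC50 and Dmax (% of control) derived, toxicity from nuclei counts versus DMSO.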

T2 sequence (P15056 whole entry G466V): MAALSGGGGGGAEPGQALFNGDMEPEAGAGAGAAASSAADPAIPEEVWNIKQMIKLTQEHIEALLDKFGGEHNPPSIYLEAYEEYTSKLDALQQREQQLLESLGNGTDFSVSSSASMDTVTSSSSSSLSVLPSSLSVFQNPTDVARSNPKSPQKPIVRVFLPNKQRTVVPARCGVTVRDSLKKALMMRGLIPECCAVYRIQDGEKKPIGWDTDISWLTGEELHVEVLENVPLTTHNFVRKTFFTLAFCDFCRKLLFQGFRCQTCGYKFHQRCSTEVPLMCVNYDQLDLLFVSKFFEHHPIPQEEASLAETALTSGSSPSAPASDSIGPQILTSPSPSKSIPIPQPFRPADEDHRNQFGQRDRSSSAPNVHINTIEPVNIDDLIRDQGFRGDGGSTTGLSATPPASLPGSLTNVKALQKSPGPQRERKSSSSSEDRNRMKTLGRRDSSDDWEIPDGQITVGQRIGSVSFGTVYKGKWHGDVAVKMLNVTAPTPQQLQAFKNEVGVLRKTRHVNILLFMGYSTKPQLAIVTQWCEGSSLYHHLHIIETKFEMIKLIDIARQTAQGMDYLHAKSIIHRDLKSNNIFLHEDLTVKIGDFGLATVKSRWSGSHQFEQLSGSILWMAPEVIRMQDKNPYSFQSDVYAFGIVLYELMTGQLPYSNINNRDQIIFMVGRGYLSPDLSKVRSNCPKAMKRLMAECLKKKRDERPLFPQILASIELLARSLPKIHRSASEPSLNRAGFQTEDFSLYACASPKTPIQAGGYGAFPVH
T1 sequence (P15056 whole entry V600E): as the sequence (P15056 whole entry G466V) above, with V466G, V600E counted along it

SMILES	DC50 (B-RAF V600E) [µM]	Dmax (B-RAF V600E) [%]	DC50 (B-RAF G466V) [µM]	Dmax (B-RAF G466V) [%]
N#Cc1c(NS(=O)(=O)N2CC[C@@H](F)C2)ccc(F)c1Oc1ccc2ncn(-c3cnc(C4(N5CCN(CC6CCN(c7ccc8c(c7)CN(C7CCC(=O)NC7=O)C8=O)CC6)CC5)CC4)nc3)c(=O)c2c1 (stereo partly drawn) [Example 100, (3R)-N-(2-cyano-3-{[3-(2-{1-[4-({1-[2-(2,6-dioxopiperidin-3-yl)-1-oxo-2,3-dihydro-1H-isoindol-5-yl]piperidin-4-yl}methyl)piperazin-1-yl]cyclopropyl}pyrimidin-5-yl)-4-oxo-3,4-dihydroquinazolin-6-yl]oxy}-4-fluorophenyl)-3-fluoropyrrolidine-1-sulfonamide]	0.05 to 0.5	35 to 70	0.001 to 0.01	35 to 70
N#Cc1c(NS(=O)(=O)N2CC[C@@H](F)C2)ccc(F)c1Oc1ccc2ncn(-c3ccc(N4CCN(c5ccc(C(=O)NC6CCC(=O)NC6=O)c(F)c5)CC4)nc3)c(=O)c2c1 (stereo partly drawn) [Example 162, 4-[4-(5-{6-[2-cyano-6-fluoro-3-({[(3R)-3-fluoropyrrolidin-1-yl]sulfonyl}amino)phenoxy]-4-oxo-3,4-dihydroquinazolin-3-yl}pyridin-2-yl)piperazin-1-yl]-N-(2,6-dioxopiperidin-3-yl)-2-fluorobenzamide]	0.005 to 0.05	35 to 70	≤ 0.001	≤ 35
N#Cc1c(NS(=O)(=O)N2CC[C@@H](F)C2)ccc(F)c1Oc1ccc2ncn(-c3ccc(NC4CCN(c5ccc6c(c5)C(=O)N(C5CCC(=O)NC5=O)C6=O)CC4)nc3)c(=O)c2c1 (stereo partly drawn) [Example 157, (3R)-N-[2-cyano-3-({3-[6-({1-[2-(2,6-dioxopiperidin-3-yl)-1,3-dioxo-2,3-dihydro-1H-isoindol-5-yl]piperidin-4-yl}amino)pyridin-3-yl]-4-oxo-3,4-dihydroquinazolin-6-yl}oxy)-4-fluorophenyl]-3-fluoropyrrolidine-1-sulfonamide]	0.05 to 0.5	35 to 70	> 0.03	–
N#Cc1c(NS(=O)(=O)N2CC[C@@H](F)C2)ccc(F)c1Oc1ccc2ncn(-c3cnc(C4(N5CCN(CC6CN(c7ccc8c(c7)CN(C7CCC(=O)NC7=O)C8=O)C6)CC5)CC4)nc3)c(=O)c2c1 (stereo partly drawn) [Example 99, (3R)-N-(2-cyano-3-{[3-(2-{1-[4-({1-[2-(2,6-dioxopiperidin-3-yl)-1-oxo-2,3-dihydro-1H-isoindol-5-yl]azetidin-3-yl}methyl)piperazin-1-yl]cyclopropyl}pyrimidin-5-yl)-4-oxo-3,4-dihydroquinazolin-6-yl]oxy}-4-fluorophenyl)-3-fluoropyrrolidine-1-sulfonamide]	0.05 to 0.5	35 to 70	0.001 to 0.01	35 to 70
N#Cc1c(NS(=O)(=O)N2CC[C@@H](F)C2)ccc(F)c1Oc1ccc2ncn(-c3ccc(N4CCC5(CCN(CC6CCN(c7ccc8c(c7)C(=O)N(C7CCC(=O)NC7=O)C8=O)CC6)CC5)CC4)nc3)c(=O)c2c1 (stereo partly drawn) [Example 145, (3R)-N-{2-cyano-3-[(3-{6-[9-({1-[2-(2,6-dioxopiperidin-3-yl)-1,3-dioxo-2,3-dihydro-1H-isoindol-5-yl]piperidin-4-yl}methyl)-3,9-diazaspiro[5.5]undecan-3-yl]pyridin-3-yl}-4-oxo-3,4-dihydroquinazolin-6-yl)oxy]-4-fluorophenyl}-3-fluoropyrrolidine-1-sulfonamide]	0.05 to 0.5	35 to 70	0.001 to 0.01	35 to 70
N#Cc1c(NS(=O)(=O)N2CC[C@@H](F)C2)ccc(F)c1Oc1ccc2ncn(-c3cnc(N4CCCC4CC4CCN(c5ccc6c(c5)C(=O)N(C5CCC(=O)NC5=O)C6=O)CC4)nc3)c(=O)c2c1 (stereo partly drawn) [Example 130, (3R)-N-{2-cyano-3-[(3-{2-[2-({1-[2-(2,6-dioxopiperidin-3-yl)-1,3-dioxo-2,3-dihydro-1H-isoindol-5-yl]piperidin-4-yl}methyl)pyrrolidin-1-yl]pyrimidin-5-yl}-4-oxo-3,4-dihydroquinazolin-6-yl)oxy]-4-fluorophenyl}-3-fluoropyrrolidine-1-sulfonamide]	> 0.5	–	0.01 to 0.03	≤ 35

Results, then the compound that gave them:

DC50 (B-RAF V600E) [µM]	Dmax (B-RAF V600E) [%]	DC50 (B-RAF G466V) [µM]	Dmax (B-RAF G466V) [%]	SMILES
0.05 to 0.5	35 to 70	0.001 to 0.01	35 to 70	Cc1cc(N2CC(CN3CCN(c4ccc(-n5cnc6ccc(Oc7c(F)ccc(NS(=O)(=O)N8CC[C@@H](F)C8)c7C#N)cc6c5=O)cc4)CC3)C2)cc2c1C(=O)N([C@H]1CCC(=O)NC1=O)C2 [Example 234, (3R)-N-(2-cyano-3-{[3-(4-{4-[(1-{2-[(3S)-2,6-dioxopiperidin-3-yl]-7-methyl-1-oxo-2,3-dihydro-1H-isoindol-5-yl}azetidin-3-yl)methyl]piperazin-1-yl}phenyl)-4-oxo-3,4-dihydroquinazolin-6-yl]oxy}-4-fluorophenyl)-3-fluoropyrrolidine-1-sulfonamide]
0.05 to 0.5	35 to 70	0.01 to 0.03	35 to 70	N#Cc1c(NS(=O)(=O)N2CC[C@@H](F)C2)ccc(F)c1Oc1ccc2ncn(-c3ccc(N4CCC(OC5CC6(C5)CN(c5ccc7c(c5)CN(C5CCC(=O)NC5=O)C7=O)C6)CC4)cc3)c(=O)c2c1 (stereo partly drawn) [Example 178, (3R)—N-{2-cyano-3-[(3-{4-[4-({2-[2-(2,6-dioxopiperidin-3-yl)-1-oxo-2,3-dihydro-1H-isoindol-5-yl]-2-azaspiro[3.3]heptan-6-yl}oxy)piperidin-1-yl]phenyl}-4-oxo-3,4-dihydroquinazolin-6-yl)oxy]-4-fluorophenyl}-3-fluoropyrrolidine-1-sulfonamide]
0.05 to 0.5	35 to 70	0.001 to 0.01	35 to 70	CN(c1ccc2c(c1)CN([C@H]1CCC(=O)NC1=O)C2=O)[C@H]1CC[C@H](N2CCN(c3ccc(-n4cnc5ccc(Oc6c(F)ccc(NS(=O)(=O)N7CC[C@@H](F)C7)c6C#N)cc5c4=O)cc3)CC2)CC1 [Example 231, (3R)-N-(2-cyano-4-fluoro-3-{[4-oxo-3-(4-(4-[(1s,4s)-4-({2-[(3S)-2,6-dioxopiperidin-3-yl]-1-oxo-2,3-dihydro-1H-isoindol-5-yl}(methyl)amino)cyclohexyl]piperazin-1-yl}phenyl)-3,4-dihydroquinazolin-6-yl]oxy}phenyl)-3-fluoropyrrolidine-1-sulfonamide]
0.05 to 0.5	35 to 70	0.001 to 0.01	35 to 70	N#Cc1c(NS(=O)(=O)N2CC[C@@H](F)C2)ccc(F)c1Oc1ccc2ncn(-c3cccc(C4CCN(CC5CCN(c6ccc7c(c6)CN([C@H]6CCC(=O)NC6=O)C7=O)CC5)C4)c3)c(=O)c2c1 (single isomer, unassigned) [Example 257, (3R)-N-{2-cyano-3-[(3-{3-[(3R*)-1-[(1-{2-[(3S)-2,6-dioxopiperidin-3-yl]-1-oxo-2,3-dihydro-1H-isoindol-5-yl}piperidin-4-yl)methyl]pyrrolidin-3-yl]phenyl}-4-oxo-3,4-dihydroquinazolin-6-yl)oxy]-4-fluorophenyl}-3-fluoropyrrolidine-1-sulfonamide]
0.05 to 0.5	35 to 70	0.001 to 0.01	35 to 70	Cn1c(=O)n(C2CCC(=O)NC2=O)c2cccc(N3CC(CN4CCN(c5ccc(-n6cnc7ccc(Oc8c(F)ccc(NS(=O)(=O)N9CC[C@@H](F)C9)c8C#N)cc7c6=O)cc5)CC4)C3)c21 (stereo partly drawn) [Example 218, (3R)-N-{2-cyano-3-[(3-{4-[4-({1-[1-(2,6-dioxopiperidin-3-yl)-3-methyl-2-oxo-2,3-dihydro-1H-1,3-benzodiazol-4-yl]azetidin-3-yl}methyl)piperazin-1-yl]phenyl}-4-oxo-3,4-dihydroquinazolin-6-yl)oxy]-4-fluorophenyl}-3-fluoropyrrolidine-1-sulfonamide]
0.05 to 0.5	35 to 70	0.001 to 0.01	≤ 35	CCN(C)S(=O)(=O)Nc1ccc(F)c(Oc2ccc3ncn(-c4ccc(N5CCN(CC6CN(c7ccc8c(c7)CN(C7CCC(=O)NC7=O)C8=O)C6)CC5)cc4)c(=O)c3c2)c1C#N (centres unmarked) [Example 181, 2-[(3-{4-[4-({1-[2-(2,6-dioxopiperidin-3-yl)-1-oxo-2,3-dihydro-1H-isoindol-5-yl]azetidin-3-yl}methyl)piperazin-1-yl]phenyl}-4-oxo-3,4-dihydroquinazolin-6-yl)oxy]-6-{[ethyl(methyl)sulfamoyl]amino}-3-fluorobenzonitrile]
0.005 to 0.05	≥ 70	0.001 to 0.01	≥ 70	N#Cc1c(NS(=O)(=O)N2CC[C@@H](F)C2)ccc(F)c1Oc1ccc2ncn(-c3cccc(C4CCN(CC5CCN(c6ccc7c(c6)CN([C@H]6CCC(=O)NC6=O)C7=O)CC5)CC4)c3)c(=O)c2c1 [Example 240, (3R)-N-(2-cyano-3-{[3-(3-{1-[(1-{2-[(3S)-2,6-dioxopiperidin-3-yl]-1-oxo-2,3-dihydro-1H-isoindol-5-yl}piperidin-4-yl)methyl]piperidin-4-yl}phenyl)-4-oxo-3,4-dihydroquinazolin-6-yl]oxy}-4-fluorophenyl)-3-fluoropyrrolidine-1-sulfonamide]
